Laboratory results from ChEMBL document CHEMBL1127929, “The synthesis and serine -lactamase inhibitory activity of some phosphonamidate analogues of dipeptides” (1994).
In brackets after ≈: the same amount, converted by molar mass.

The molecules below were run against Beta-lactamase (Enterobacter cloacae) (UniProt P05364) (assay: Compound was tested for the inhibitory activity against Enterobacter cloacae P99 serine beta-lactamase).
Sequence of Beta-lactamase (Enterobacter cloacae) (P05364 21-381 limits assumed): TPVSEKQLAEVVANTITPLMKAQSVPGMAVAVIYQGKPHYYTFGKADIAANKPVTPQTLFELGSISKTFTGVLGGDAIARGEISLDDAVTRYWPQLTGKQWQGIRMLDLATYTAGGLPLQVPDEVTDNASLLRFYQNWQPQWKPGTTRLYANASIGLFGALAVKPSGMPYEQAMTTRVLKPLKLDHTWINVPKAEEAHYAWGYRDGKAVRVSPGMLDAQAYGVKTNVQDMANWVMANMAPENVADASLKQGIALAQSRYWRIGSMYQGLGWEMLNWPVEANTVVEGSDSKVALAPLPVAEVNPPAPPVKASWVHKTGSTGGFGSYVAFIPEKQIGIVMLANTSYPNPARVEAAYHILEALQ

SMILES | ID50
O=C(O)[C@H]1/C(=C/CO)O[C@@H]2CC(=O)N21 [CLAVULANIC ACID] | 310 µM
O=C(O)CC(NP(=O)(O)CNC(=O)OCc1ccccc1)c1ccccc1 (stereo unspecified) | 0.87 µM
O=C(NCP(=O)(O)N[C@@H](C(=O)O)c1ccccc1)OCc1ccccc1 | 4.16 µM
COP(=O)(CNC(=O)OCc1ccccc1)N1CSC(C)(C)[C@@H]1C(=O)O (stereo partly specified) | > 100 µM
O=C(NCP(=O)(O)N[C@@H](Cc1ccccc1)C(=O)O)OCc1ccccc1 | 0.75 µM
O=C(O)CCNP(=O)(O)CNC(=O)OCc1ccccc1 | 0.87 µM
O=C(NCP(=O)(O)N[C@H](Cc1ccccc1)C(=O)O)OCc1ccccc1 | 3.8 µM
COP(=O)(CNC(=O)OCc1ccccc1)N1CCC[C@@H]1C(=O)O (stereo partly specified) | 67 µM
COP(=O)(CNC(=O)OCc1ccccc1)N1CCC[C@H]1C(=O)O (stereo partly specified) | 54 µM
O=C(O)CNP(=O)(O)CNC(=O)OCc1ccccc1 | 2.29 µg/mL
O=C(O)CNCP(=O)(O)CNC(=O)OCc1ccccc1 | > 100 µM

The molecules below were run against Beta-lactamase OXA-1 (Escherichia coli) (UniProt P13661) (assay: Compound was tested for the inhibitory activity against Escherichia coli OXA-1 serine beta-lactamase).
Sequence of Beta-lactamase OXA-1 (Escherichia coli) (P13661 whole entry): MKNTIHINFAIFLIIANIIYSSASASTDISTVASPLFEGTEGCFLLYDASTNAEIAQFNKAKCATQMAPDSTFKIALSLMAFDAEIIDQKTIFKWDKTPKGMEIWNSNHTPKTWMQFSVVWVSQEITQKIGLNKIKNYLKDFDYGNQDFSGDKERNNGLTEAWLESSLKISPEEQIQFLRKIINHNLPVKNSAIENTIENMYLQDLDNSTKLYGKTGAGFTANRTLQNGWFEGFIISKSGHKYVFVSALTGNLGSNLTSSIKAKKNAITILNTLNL

SMILES | ID50 [µM]
O=C(O)[C@H]1/C(=C/CO)O[C@@H]2CC(=O)N21 [CLAVULANIC ACID] | 3.4
O=C(O)CC(NP(=O)(O)CNC(=O)OCc1ccccc1)c1ccccc1 (stereo unspecified) | 46
O=C(NCP(=O)(O)N[C@@H](C(=O)O)c1ccccc1)OCc1ccccc1 | > 100
O=C(NCP(=O)(O)N[C@@H](Cc1ccccc1)C(=O)O)OCc1ccccc1 | 60
O=C(O)CCNP(=O)(O)CNC(=O)OCc1ccccc1 | 14
O=C(NCP(=O)(O)N[C@H](Cc1ccccc1)C(=O)O)OCc1ccccc1 | > 100
O=C(O)CNP(=O)(O)CNC(=O)OCc1ccccc1 | 30

Each molecule was assayed against T1, SHV-5 extended spectrum beta-lactamase (Escherichia coli) (UniProt Q6REX6) (assay: Compound was tested for the inhibitory activity against Escherichia coli SHV-5 serine beta-lactamase).
T1 sequence (whole entry): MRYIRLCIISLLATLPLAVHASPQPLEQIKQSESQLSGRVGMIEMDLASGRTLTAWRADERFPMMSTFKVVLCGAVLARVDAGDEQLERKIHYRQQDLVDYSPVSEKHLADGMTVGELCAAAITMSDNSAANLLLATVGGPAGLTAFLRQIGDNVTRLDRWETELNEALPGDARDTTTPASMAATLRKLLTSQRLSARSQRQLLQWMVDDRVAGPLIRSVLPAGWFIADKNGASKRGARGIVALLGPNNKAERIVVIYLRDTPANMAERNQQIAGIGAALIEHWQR

SMILES | ID50 [µM]
O=C(O)[C@H]1/C(=C/CO)O[C@@H]2CC(=O)N21 [CLAVULANIC ACID] | 0.013
O=C(O)CC(NP(=O)(O)CNC(=O)OCc1ccccc1)c1ccccc1 (stereo unspecified) | 63
O=C(NCP(=O)(O)N[C@@H](C(=O)O)c1ccccc1)OCc1ccccc1 | > 100
O=C(NCP(=O)(O)N[C@@H](Cc1ccccc1)C(=O)O)OCc1ccccc1 | > 100
O=C(O)CCNP(=O)(O)CNC(=O)OCc1ccccc1 | 33
O=C(NCP(=O)(O)N[C@H](Cc1ccccc1)C(=O)O)OCc1ccccc1 | > 100
O=C(O)CNP(=O)(O)CNC(=O)OCc1ccccc1 | > 100

Each molecule was assayed against Beta-lactamase TEM (Escherichia coli) (UniProt P62593) (assay: Inhibitory activity against Escherichia coli TEM-1 serine beta-lactamase).
Sequence of Beta-lactamase TEM (Escherichia coli) (P62593 whole entry): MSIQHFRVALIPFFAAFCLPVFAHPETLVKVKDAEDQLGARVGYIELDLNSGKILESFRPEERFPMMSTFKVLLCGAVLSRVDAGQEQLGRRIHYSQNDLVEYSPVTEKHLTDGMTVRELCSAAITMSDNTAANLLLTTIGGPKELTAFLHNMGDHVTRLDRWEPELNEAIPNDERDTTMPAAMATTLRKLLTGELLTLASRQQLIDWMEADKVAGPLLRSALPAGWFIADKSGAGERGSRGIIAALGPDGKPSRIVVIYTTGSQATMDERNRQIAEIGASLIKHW

SMILES | ID50
O=C(O)[C@H]1/C(=C/CO)O[C@@H]2CC(=O)N21 [CLAVULANIC ACID] | 0.315 µM
O=C(O)CC(NP(=O)(O)CNC(=O)OCc1ccccc1)c1ccccc1 (stereo unspecified) | > 50 µM
O=C(NCP(=O)(O)N[C@@H](C(=O)O)c1ccccc1)OCc1ccccc1 | > 100 µM
COP(=O)(CNC(=O)OCc1ccccc1)N1CSC(C)(C)[C@@H]1C(=O)O (stereo partly specified) | > 100 µM
O=C(NCP(=O)(O)N[C@@H](Cc1ccccc1)C(=O)O)OCc1ccccc1 | > 50 µM
O=C(O)CCNP(=O)(O)CNC(=O)OCc1ccccc1 | > 50 µM
O=C(NCP(=O)(O)N[C@H](Cc1ccccc1)C(=O)O)OCc1ccccc1 | > 100 µM
COP(=O)(CNC(=O)OCc1ccccc1)N1CCC[C@@H]1C(=O)O (stereo partly specified) | > 100 µM
COP(=O)(CNC(=O)OCc1ccccc1)N1CCC[C@H]1C(=O)O (stereo partly specified) | > 100 µM
O=C(O)CNP(=O)(O)CNC(=O)OCc1ccccc1 | > 100 µg/mL
O=C(O)CNCP(=O)(O)CNC(=O)OCc1ccccc1 | > 100 µM

Each molecule was assayed on Proteus mirabilis (assay: Compound was tested for the inhibitory activity against Proteus mirabilis carbenicillinase).

SMILES | ID50 [µM]
O=C(O)[C@H]1/C(=C/CO)O[C@@H]2CC(=O)N21 [CLAVULANIC ACID] | 0.51
O=C(O)CC(NP(=O)(O)CNC(=O)OCc1ccccc1)c1ccccc1 (stereo unspecified) | > 100
O=C(NCP(=O)(O)N[C@@H](C(=O)O)c1ccccc1)OCc1ccccc1 | > 100
O=C(NCP(=O)(O)N[C@@H](Cc1ccccc1)C(=O)O)OCc1ccccc1 | > 100
O=C(O)CCNP(=O)(O)CNC(=O)OCc1ccccc1 | > 100
O=C(NCP(=O)(O)N[C@H](Cc1ccccc1)C(=O)O)OCc1ccccc1 | > 100
O=C(O)CNP(=O)(O)CNC(=O)OCc1ccccc1 | > 100

Each molecule was assayed against T2, Beta-lactamase PSE-4 (Pseudomonas aeruginosa) (UniProt P16897) (assay: Compound was tested for the inhibitory activity against Pseudomonas aeruginosa PSE-4 serine beta-lactamase).
T2 sequence (whole entry): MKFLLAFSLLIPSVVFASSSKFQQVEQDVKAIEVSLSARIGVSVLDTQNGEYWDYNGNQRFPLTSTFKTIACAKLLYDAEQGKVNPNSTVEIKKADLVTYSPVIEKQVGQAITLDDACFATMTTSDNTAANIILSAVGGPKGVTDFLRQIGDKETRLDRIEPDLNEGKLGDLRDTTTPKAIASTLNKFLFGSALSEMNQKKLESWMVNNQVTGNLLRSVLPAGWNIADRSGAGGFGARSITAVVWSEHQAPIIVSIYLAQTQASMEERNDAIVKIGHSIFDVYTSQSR

SMILES | ID50 [µM]
O=C(O)[C@H]1/C(=C/CO)O[C@@H]2CC(=O)N21 [CLAVULANIC ACID] | 0.235
O=C(O)CC(NP(=O)(O)CNC(=O)OCc1ccccc1)c1ccccc1 (stereo unspecified) | 83
O=C(NCP(=O)(O)N[C@@H](C(=O)O)c1ccccc1)OCc1ccccc1 | > 100
O=C(NCP(=O)(O)N[C@@H](Cc1ccccc1)C(=O)O)OCc1ccccc1 | 15
O=C(O)CCNP(=O)(O)CNC(=O)OCc1ccccc1 | > 100
O=C(NCP(=O)(O)N[C@H](Cc1ccccc1)C(=O)O)OCc1ccccc1 | > 100
O=C(O)CNP(=O)(O)CNC(=O)OCc1ccccc1 | > 100

The molecules below were run against Beta-lactamase (Enterobacter cloacae) (UniProt P05364) (assay: Minimum inhibitory concentration of 10 ug/ml compound in combination with amoxycillin against Enterobacter cloacae N-1 organism).
Assay type: functional

SMILES | MIC [µg/mL]
CC1(C)S[C@@H]2[C@H](NC(=O)C(N)c3ccc(O)cc3)C(=O)N2[C@H]1C(=O)O.O=C(NCP(=O)(O)N[C@@H](Cc1ccccc1)C(=O)O)OCc1ccccc1 | 128
CC1(C)S[C@@H]2[C@H](NC(=O)C(N)c3ccc(O)cc3)C(=O)N2[C@H]1C(=O)O.O=C(O)CC(NP(=O)(O)CNC(=O)OCc1ccccc1)c1ccccc1 (stereo unspecified) | 16

What follows are molecules tested against Beta-lactamase (Staphylococcus aureus) (UniProt P00807) (assay: Inhibitory activity against Staphylococcus aureus penicillinase).
Sequence of Beta-lactamase (Staphylococcus aureus) (P00807 whole entry): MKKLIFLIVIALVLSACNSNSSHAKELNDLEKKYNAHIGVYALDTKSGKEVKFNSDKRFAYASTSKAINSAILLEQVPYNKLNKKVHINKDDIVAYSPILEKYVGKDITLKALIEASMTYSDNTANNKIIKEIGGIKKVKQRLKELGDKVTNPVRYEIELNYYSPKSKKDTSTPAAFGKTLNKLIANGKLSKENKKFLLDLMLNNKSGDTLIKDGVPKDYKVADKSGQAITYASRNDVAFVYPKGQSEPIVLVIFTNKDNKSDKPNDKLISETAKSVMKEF

SMILES | ID50
O=C(O)[C@H]1/C(=C/CO)O[C@@H]2CC(=O)N21 [CLAVULANIC ACID] | 0.38 µM
O=C(O)CC(NP(=O)(O)CNC(=O)OCc1ccccc1)c1ccccc1 (stereo unspecified) | > 35 µM
O=C(NCP(=O)(O)N[C@@H](C(=O)O)c1ccccc1)OCc1ccccc1 | > 100 µM
COP(=O)(CNC(=O)OCc1ccccc1)N1CSC(C)(C)[C@@H]1C(=O)O (stereo partly specified) | > 100 µM
O=C(NCP(=O)(O)N[C@@H](Cc1ccccc1)C(=O)O)OCc1ccccc1 | > 33 µM
O=C(O)CCNP(=O)(O)CNC(=O)OCc1ccccc1 | > 25 µM
O=C(NCP(=O)(O)N[C@H](Cc1ccccc1)C(=O)O)OCc1ccccc1 | > 100 µM
COP(=O)(CNC(=O)OCc1ccccc1)N1CCC[C@@H]1C(=O)O (stereo partly specified) | > 100 µM
COP(=O)(CNC(=O)OCc1ccccc1)N1CCC[C@H]1C(=O)O (stereo partly specified) | > 100 µM
O=C(O)CNP(=O)(O)CNC(=O)OCc1ccccc1 | > 100 µg/mL
O=C(O)CNCP(=O)(O)CNC(=O)OCc1ccccc1 | > 100 µM

Each molecule was assayed on Staphylococcus aureus (assay: Antibacterial activity against Staphylococcus aureus MB9 organism, activity expressed as MIC(minimum inhibitory concentration)).
Assay type: functional

SMILES | MIC [µg/mL]
O=C(O)[C@H]1/C(=C/CO)O[C@@H]2CC(=O)N21 [CLAVULANIC ACID] | 32 (≈ 161 µM)

These molecules were tested against Beta-lactamase (Enterobacter cloacae) (UniProt P05364).
Description: Antibacterial activity against Enterobacter cloacae N-1 organism, activity expressed as MIC(minimum inhibitory concentration)

SMILES | MIC [µg/mL]
O=C(O)[C@H]1/C(=C/CO)O[C@@H]2CC(=O)N21 [CLAVULANIC ACID] | 32 (≈ 161 µM)

What follows are molecules tested against Beta-lactamase TEM (Escherichia coli) (UniProt P62593).
Description: Antibacterial activity against Escherichia coli E96P organism, activity expressed as MIC(minimum inhibitory concentration)

SMILES | MIC [µg/mL]
O=C(O)[C@H]1/C(=C/CO)O[C@@H]2CC(=O)N21 [CLAVULANIC ACID] | 32 (≈ 161 µM)
